Consider 1 compound from patent EP4792822A1, “USE OF PEPTIDE AMIDE COMPOUND IN PREPARATION OF DRUG FOR […] AND VOMITING” (Haisco Pharmaceutical Group Co., Ltd., priority 2023, dated 2025).

This data set concerns tumour subjects planned to receive highly emetogenic chemotherapy for the first time. The experiment in a line: Example 4: active-controlled dose-finding study of compound 1 injection for the prevention of chemotherapy-induced nausea and vomiting (CINV). The class given is in vivo, patients. Here is the method:
Study period: Treatment duration: Within 120 h after the first administration of highly emetogenic chemotherapeutic agents; Follow-up duration: Day 10 ± 1 after the first administration of highly emetogenic chemotherapeutic agents.
Protocol: This study was a multicentre, randomised, double-blind, active-controlled study. About 180 tumour subjects planned to receive highly emetogenic chemotherapy for the first time were randomised in a 1 : 1 : 1 ratio to three groups, with 60 subjects per group. Pre-chemotherapy study drug administration was completed 30 ± 10 min before the start of administration of the highly emetogenic chemotherapeutic agents. The dosing regimen was as follows: administration was performed in the following order: • 1) Compound 1 (placebo)/compound 1: A single dose was administered 30 ± 10 min before the start of administration of highly emetogenic chemotherapeutic agents, via intravenous bolus injection, with an intravenous bolus injection time of not less than 30 s. • 2) Dolasetron mesylate injection/dolasetron mesylate injection matching placebo: After the administration of compound 1/compound 1 (placebo), 5 ml (100 mg) of dolasetron mesylate injection/matching placebo was administered via intravenous bolus injection without dilution, and the infusion line was flushed with normal saline before and after administration. […]

As for `CC(=O)N1CC2(CCN(C(=O)[C@@H](CCCCN)NC(=O)[C@@H](CC(C)C)NC(=O)[C@@H](Cc3ccccc3)NC(=O)[C@H](N)Cc3ccccc3)CC2)C1` [Compound 1, (2R)-N-[(1R)-1-(2-acetyl-2,7-diazaspiro[3.5]nonane-7-carbonyl)-5-amino-pentyl]-2-[[(2R)-2-[[(2R)-2-amino-3-phenyl-propionyl]amino]-3-phenylpropionyl]amino]-4-methyl-pentanamide], the overall safety result (Example 4) was “good overall safety”. In addition, the “effect on CINV” value (Example 4, with dolasetron/aprepitant/dexamethasone background regimens) is recorded as “preventive and/or ameliorating effect on CINV”.
